# According to patent US20100267561A1, “HERBICIDAL PYRIDAZINONE DERIVATIVES” (priority 2007, published 2010):
# Experiments:
# Assay type in all cases: in vivo
# [1] = test system: barnyardgrass (Echinochloa crus-galli); assay: Test A pre-/postemergence plant response
# Summary of the method: (§1)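 Seeds were planted in blended loam soil and sand, then treated preemergence by directed soil spray. At that time, emerged plants (one- to two-leaf, 2–10 cm) received postemergence applications of the same surfactant-containing formulation. Injury was assessed visually on a 0–100 scale after approximately 10 days.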
# [2] = test system: corn (Zea mays); assay: Test A pre-/postemergence plant response
# Summary of the method: as §1
# [3] = test system: giant foxtail (Setaria faberi); assay: Test A pre-/postemergence plant response
# Summary of the method: as §1
# [4] = test system: large crabgrass (Digitaria sanguinalis); assay: Test A pre-/postemergence plant response
# Summary of the method: as §1
# [5] = test system: morningglory (Ipomoea coccinea); assay: Test A pre-/postemergence plant response
# Summary of the method: as §1
# [6] = test system: velvetleaf (Abutilon theophrasti); assay: Test A pre-/postemergence plant response
# Summary of the method: as §1
# [7] = test system: wheat (Triticum aestivum); assay: Test B pre-/postemergence plant response
# Summary of the method: (§2)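 Seeds were sown and sprayed preemergence, while plants at 2 to 18 cm (1- to 4-leaf stage) got postemergence sprays. Compounds were formulated in a non-phytotoxic solvent mixture with surfactant. After 13 to 15 days in a greenhouse, injury was rated visually against untreated controls, 0 (no effect) to 100 (complete control).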
# [8] = test system: wild oat (Avena fatua); assay: Test B pre-/postemergence plant response
# Summary of the method: as §2
# [9] = test system: yellow nutsedge (Cyperus esculentus); assay: Test B pre-/postemergence plant response
# Summary of the method: as §2
# [10] = test system: canarygrass (Phalaris minor); assay: Test B postemergence plant response; settings: for Canarygrass plant response rating: 8 g ai/ha, postemergence, 0-100 scale; for Plant response rating, Canarygrass: Postemergence
# Summary of the method: (§3)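 Scoring: 0 means no effect and 100 complete control, judged by eye against controls after 13–15 days under greenhouse conditions following postemergence application at 2–18 cm plant height.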
# [11] = test system: chickweed (Stellaria media); assay: Test B postemergence plant response; settings: for Chickweed plant response rating: 8 g ai/ha, postemergence, 0-100 scale; for Plant response rating, Chickweed: Postemergence
# Summary of the method: as §3
# [12] = test system: windgrass (Apera spica-venti); assay: Test B postemergence plant response; settings: for Windgrass plant response rating: 8 g ai/ha, postemergence, 0-100 scale; for Plant response rating, Windgrass: Postemergence
# Summary of the method: as §3
# [13] = test system: winter barley (Hordeum vulgare); assay: Test B postemergence plant response; settings: for Barley plant response rating: 8 g ai/ha, postemergence, 0-100 scale; for Plant response rating, Barley: Postemergence, scale 0 to 100, 0 no effect, 100 complete control
# Summary of the method: as §3
# [14] = Postemergence, 31 g ai/ha, 0 to 100 scale, 0 no effect, 100 complete control
# [15] = Postemergence, 125 g ai/ha, 0 to 100 scale, 0 no effect, 100 complete control
# [16] = Preemergence, 31 g ai/ha, 0 to 100 scale, 0 is no effect, 100 is complete control
# [17] = Preemergence, 125 g ai/ha, 0 to 100 scale (0 no effect, 100 complete control)
# [18] = 8 g ai/ha, postemergence, 0-100 scale
# [19] = Postemergence, 16 g ai/ha, scale 0 to 100
# [20] = Postemergence, 31 g ai/ha, scale 0 to 100
# [21] = Postemergence, 62 g ai/ha, scale 0 to 100, 0 no effect, 100 complete control
# [22] = Preemergence, 16 g ai/ha, scale 0 to 100 (0 no effect, 100 complete control)
# [23] = Preemergence, 31 g ai/ha, scale 0 to 100 (0 no effect, 100 complete control)
# [24] = Preemergence, 62 g ai/ha, 0 to 100 scale, 0 no effect, 100 complete control
# [25] = Preemergence, 8 g ai/ha, scale 0 to 100
# [26] = Preemergence, 62 g ai/ha, scale 0 to 100
# [27] = 62 g ai/ha, scale 0 to 100, 0 no effect, 100 complete control
# [28] = Preemergence, 16 g ai/ha, scale 0 to 100
structure (smiles),measurement,setting,value
Cn1ncc(O)c(-n2nc(-c3ccc(Cl)cc3)cc2C2CC2)c1=O [Compound 45],"Plant response rating, Barnyardgrass",[1]; [14],80
same,"Plant response rating, Barnyardgrass",[1]; [15],100
same,"Plant response rating, Barnyardgrass",[1]; [16],90
same,"Plant response rating, Barnyardgrass",[1]; [17],100
same,"Plant response rating, Corn",[2]; [14],40
same,"Plant response rating, Corn",[2]; [15],80
same,"Plant response rating, Corn",[2]; [16],0
same,"Plant response rating, Corn",[2]; [17],60
same,"Plant response rating, Foxtail, Giant",[3]; [14],90
same,"Plant response rating, Foxtail, Giant",[3]; [15],100
same,"Plant response rating, Foxtail, Giant",[3]; [16],90
same,"Plant response rating, Foxtail, Giant",[3]; [17],100
same,"Plant response rating, Crabgrass, Large",[4]; [14],40
same,"Plant response rating, Crabgrass, Large",[4]; [15],100
same,"Plant response rating, Crabgrass, Large",[4]; [16],30
same,"Plant response rating, Crabgrass, Large",[4]; [17],90
same,"Plant response rating, Morningglory",[5]; [14],0
same,"Plant response rating, Morningglory",[5]; [15],0
same,"Plant response rating, Morningglory",[5]; [16],0
same,"Plant response rating, Morningglory",[5]; [17],0
same,"Plant response rating, Velvetleaf",[6]; [14],0
same,"Plant response rating, Velvetleaf",[6]; [15],0
same,"Plant response rating, Velvetleaf",[6]; [16],0
same,"Plant response rating, Velvetleaf",[6]; [17],0
same,Wheat plant response rating,[7]; [18],60
same,"Plant response rating, Wheat",[7]; [19],85
same,"Plant response rating, Wheat",[7]; [20],85
same,"Plant response rating, Wheat",[7]; [21],98
same,"Plant response rating, Wheat",[7]; [22],30
same,"Plant response rating, Wheat",[7]; [23],70
same,"Plant response rating, Wheat",[7]; [24],95
same,Wheat plant response rating,[7]; [25],0
same,"Oat, Wild plant response rating",[8]; [18],90
same,"Plant response rating, Oat, Wild",[8]; [19],98
same,"Plant response rating, Oat, Wild",[8]; [20],100
same,"Plant response rating, Oat, Wild",[8]; [21],100
same,"Plant response rating, Oat, Wild",[8]; [22],80
same,"Plant response rating, Oat, Wild",[8]; [23],90
same,"Plant response rating, Oat, Wild",[8]; [26],95
same,"Oat, Wild plant response rating",[8]; [25],15
same,"Nutsedge, Yellow plant response rating",[9]; [18],0
same,"Plant response rating, Nutsedge, Yellow",[9]; [19],0
same,"Plant response rating, Nutsedge, Yellow",[9]; [20],0
same,"Plant response rating, Nutsedge, Yellow",[9]; [21],0
same,"Plant response rating, Nutsedge, Yellow",[9]; [22],0
same,"Plant response rating, Nutsedge, Yellow",[9]; [23],0
same,"Plant response rating, Nutsedge, Yellow",[9]; [26],0
same,"Nutsedge, Yellow plant response rating",[9]; [25],0
same,Canarygrass plant response rating,[10],0
same,"Plant response rating, Canarygrass","[10]; 16 g ai/ha, scale 0 to 100",0
same,"Plant response rating, Canarygrass","[10]; 31 g ai/ha, scale 0 to 100",0
same,"Plant response rating, Canarygrass",[10]; [27],0
same,Chickweed plant response rating,[11],0
same,"Plant response rating, Chickweed","[11]; 16 g ai/ha, scale 0 to 100",0
same,"Plant response rating, Chickweed","[11]; 31 g ai/ha, scale 0 to 100",0
same,"Plant response rating, Chickweed",[11]; [27],0
same,Windgrass plant response rating,[12],30
same,"Plant response rating, Windgrass","[12]; 16 g ai/ha, scale 0 to 100",35
same,"Plant response rating, Windgrass","[12]; 31 g ai/ha, scale 0 to 100",60
same,"Plant response rating, Windgrass",[12]; [27],65
same,Barley plant response rating,[13],5
same,"Plant response rating, Barley",[13]; 16 g ai/ha,5
same,"Plant response rating, Barley",[13]; 31 g ai/ha,5
same,"Plant response rating, Barley",[13]; 62 g ai/ha,5
Cc1cc(-c2ccc(Cl)cc2)nn1-c1c(OC(=O)c2cccs2)cnn(C)c1=O [Compound 52],"Plant response rating, Barnyardgrass",[1]; [14],80
same,"Plant response rating, Barnyardgrass",[1]; [15],100
same,"Plant response rating, Barnyardgrass",[1]; [16],70
same,"Plant response rating, Barnyardgrass",[1]; [17],100
same,"Plant response rating, Corn",[2]; [14],30
same,"Plant response rating, Corn",[2]; [15],100
same,"Plant response rating, Corn",[2]; [16],0
same,"Plant response rating, Corn",[2]; [17],70
same,"Plant response rating, Foxtail, Giant",[3]; [14],80
same,"Plant response rating, Foxtail, Giant",[3]; [15],90
same,"Plant response rating, Foxtail, Giant",[3]; [16],100
same,"Plant response rating, Foxtail, Giant",[3]; [17],100
same,"Plant response rating, Crabgrass, Large",[4]; [14],60
same,"Plant response rating, Crabgrass, Large",[4]; [15],90
same,"Plant response rating, Crabgrass, Large",[4]; [16],30
same,"Plant response rating, Crabgrass, Large",[4]; [17],100
same,"Plant response rating, Morningglory",[5]; [14],0
same,"Plant response rating, Morningglory",[5]; [15],0
same,"Plant response rating, Morningglory",[5]; [16],0
same,"Plant response rating, Morningglory",[5]; [17],20
same,"Plant response rating, Velvetleaf",[6]; [14],0
same,"Plant response rating, Velvetleaf",[6]; [15],20
same,"Plant response rating, Velvetleaf",[6]; [17],0
same,Wheat plant response rating,[7]; [18],0
same,"Plant response rating, Wheat",[7]; [19],50
same,"Plant response rating, Wheat",[7]; [20],70
same,"Plant response rating, Wheat",[7]; [21],85
same,"Plant response rating, Wheat",[7]; [23],20
same,"Plant response rating, Wheat",[7]; [24],50
same,Wheat plant response rating,[7]; [25],0
same,Wheat plant response rating,[7]; [28],0
same,"Oat, Wild plant response rating",[8]; [18],50
same,"Plant response rating, Oat, Wild",[8]; [19],90
same,"Plant response rating, Oat, Wild",[8]; [20],95
same,"Plant response rating, Oat, Wild",[8]; [21],100
same,"Plant response rating, Oat, Wild",[8]; [23],70
same,"Plant response rating, Oat, Wild",[8]; [26],90
same,"Oat, Wild plant response rating",[8]; [25],0
same,"Oat, Wild plant response rating",[8]; [28],30
same,"Nutsedge, Yellow plant response rating",[9]; [18],0
same,"Plant response rating, Nutsedge, Yellow",[9]; [19],0
same,"Plant response rating, Nutsedge, Yellow",[9]; [20],0
same,"Plant response rating, Nutsedge, Yellow",[9]; [21],0
same,"Plant response rating, Nutsedge, Yellow",[9]; [23],0
same,"Plant response rating, Nutsedge, Yellow",[9]; [26],0
same,"Nutsedge, Yellow plant response rating",[9]; [25],0
same,"Nutsedge, Yellow plant response rating",[9]; [28],0
same,Canarygrass plant response rating,[10],0
same,"Plant response rating, Canarygrass","[10]; 16 g ai/ha, scale 0 to 100",0
same,"Plant response rating, Canarygrass","[10]; 31 g ai/ha, scale 0 to 100",0
same,"Plant response rating, Canarygrass",[10]; [27],5
same,Chickweed plant response rating,[11],0
same,"Plant response rating, Chickweed","[11]; 16 g ai/ha, scale 0 to 100",0
same,"Plant response rating, Chickweed","[11]; 31 g ai/ha, scale 0 to 100",0
same,"Plant response rating, Chickweed",[11]; [27],0
same,Windgrass plant response rating,[12],0
same,"Plant response rating, Windgrass","[12]; 16 g ai/ha, scale 0 to 100",0
same,"Plant response rating, Windgrass","[12]; 31 g ai/ha, scale 0 to 100",60
same,"Plant response rating, Windgrass",[12]; [27],80
same,Barley plant response rating,[13],0
same,"Plant response rating, Barley",[13]; 16 g ai/ha,0
same,"Plant response rating, Barley",[13]; 31 g ai/ha,0
same,"Plant response rating, Barley",[13]; 62 g ai/ha,0
